From patent US20230285380A1, “DUAL TREATMENT OF MIGRAINE” (priority 2021, published 2023)

Legend:
[1] = tested on: patients with episodic and chronic migraine; experiment: BHV3000-305 Phase 2/3 randomized, double-blind, placebo-controlled study of rimegepant in migraine prevention (NCT03732638): efficacy; assay type: in vivo, human
Description: Clinical Trial—BHV3000-305: A Phase ⅔, Randomized, Double-blind, Placebo-controlled Study to Evaluate the Efficacy and Safety of Rimegepant in Migraine Prevention (ClinicalTrials.gov Identifier: NCT03732638).
A phase ⅔ clinical study was conducted with 1629 participants, as follows.
The purpose of this is study is to compare the efficacy of BHV-3000 (rimegepant) to placebo as a preventive treatment for migraine, as measured by the reduction in the number of migraine days per month.
Study Design • Study Type: Interventional (Clinical Trial) • Actual Enrollment: 1629 participants • Allocation: Randomized • Intervention Model: Parallel Assignment • Masking: Triple (Participant, Care Provider, Investigator) • Primary Purpose: Prevention • Official Title: A Phase ⅔, Randomized, Double-blind, Placebo-controlled Study to Evaluate the Efficacy and Safety of Rimegepant in Migraine Prevention • Actual Study Start Date: Nov. 14, 2018 • Actual Primary Completion Date: Dec. 10, 2019 • Estimated Study Completion Jan. 30, 2021 • Date:
Primary Outcome Measures: • 1. Change from baseline in mean number of migraine days per month [Time Frame: Mean number of migraine days per month as assessed over 3 months (12 weeks)] Change from baseline in mean number of migraine days per month as measured over the 12-week double-blind phase of the study.
Secondary Outcome Measures: • 1. Achievement of at least a 50% reduction from baseline in mean number of moderate to severe monthly migraine days. [Time Frame: baseline to end of Week 12] Achievement of at least a 50% reduction from baseline in mean number of moderate to severe monthly migraine days over course of the double-blind treatment phase. • 2. The mean number of rescue medication days per month. [Time Frame: baseline to end of week 12 as measure per month] The mean number of rescue medication days per month over the course of the double-blind, treatment phase. Rescue medications include the rescue medications defined in this protocol. • 3. Adverse events. [Time Frame: baseline to end of Week 12] Adverse events that occur in at least 5% of treated subjects; the frequency of unique subjects with serious adverse events, adverse events leading to discontinuation and clinically significant laboratory abnormalities, as reported on case report forms. • 4. The frequency of AST or ALT elevations. [Time Frame: baseline to end of Week 12] The frequency of AST or ALT elevations >3×ULN, concurrently with bilirubin elevations >2× ULN, will be assessed by tabulating the number of unique subjects with this pairing of events. • 5. The frequency of hepatic-related adverse events and hepatic-related treatment. [Time Frame: baseline to end of Week 12] The frequency of hepatic-related adverse events and hepatic-related treatment discontinuations will be tabulated from case report forms and will be based on unique subjects reporting such events. • 6. The mean change from baseline in the MSQ role function [Time Frame: baseline to end of Week 12] The mean change from baseline in the MSQ role function—restrictive domain score at Week 12 of the double-blind treatment phase. • 7. The mean change from baseline in the MIDAS total score. [Time Frame: baseline to end of Week 12]
The mean change from baseline in the MIDAS total score at Week 12 of the double-blind treatment phase.
This pivotal study enrolled patients with both episodic and chronic migraine. The study evaluated the efficacy and safety of rimegepant 75 mg (n=370) dosed every other day for the preventive treatment of migraine in patients versus placebo (n=371) who had migraine for at least one year and 4 to 18 moderate to severe migraine attacks per month over three months prior to enrollment. During the one-month observation period, patients experienced on average 10.7 migraine days per month, with 7.4 migraine days of moderate to severe migraine during the same period.

[2] = tested on: patients with moderate to severe intensity migraine; experiment: large open-label Phase 2 trial of rimegepant; assay type: in vivo, human
Excerpt: The goal of our strategy is to deliver one medication to address patients' needs for treating their migraines.

[3] = BHV3000-305 study: adverse events and liver safety on double-blind treatment
[4] = 370 patients, rimegepant 75 mg every other day
[5] = Severity: Mild, Treated Subjects N = 370
[6] = Severity: Moderate or Severe, Treated Subjects N = 370
[7] = Severity: Moderate, Treated Subjects N = 370
[8] = Severity: Total, Treated Subjects N = 370

## N[C@@H]1c2cccnc2[C@H](OC(=O)N2CCC(n3c(=O)[nH]c4ncccc43)CC2)CC[C@H]1c1cccc(F)c1F [Rimegepant, [(5S,6S,9R)-5-amino-6-(2,3-difluorophenyl)-6,7,8,9-tetrahydro-5H-cyclohepta[b]pyridin-9-yl] 4-(2-oxo-3H-imidazo[4,5-b]pyridin-1-yl)piperidine-1-carboxylate]
[1]; 95% CI (0.23, 6.70), P-value 0.0358
  MSQoL Restrictive Role Function Domain Score Change From Baseline at Week 12, Difference (Rimegepant − Placebo): 3.5
[1]; 95% CI (−0.6, 14.1), P-value 0.0734
  >=50% Reduction in Moderate or Severe Migraine Days per Month in Last Month, Stratified Risk Difference (Rimegepant − Placebo): 6.7
[1]; 95% CI (−0.80, 0.31), P-value 0.3868
  Rescue Medication Days per Month in Last Month, Difference (Rimegepant − Placebo): −0.2 Days per Month
[1]; 95% CI (−1.23, −0.17), P-value 0.0094
  Change From OP in Mean Number of Total Migraine Days per Month Overall, Difference (Rimegepant − Placebo): −0.7 Days per Month
[1]; 95% CI (−1.42, −0.14), P-value 0.0176, significant in hierarchical testing
  Change From OP in Mean Number of Total Migraine Days per Month in Last Month, Difference (Rimegepant − Placebo): −0.8 Days per Month
[1]; 95% CI (−1.49, −0.36), P-value 0.0013
  Change From OP in Mean Number of Total Migraine Days per Month In First Month, Difference (Rimegepant − Placebo): −0.9 Days per Month
[1]; 95% CI (−4.74, 4.51), P-value 0.9616
  MIDAS Total Score Change From Baseline at Week 12, Difference (Rimegepant − Placebo): −0.1
[1]; evaluable mITT
  >=50% Reduction From OP in Mean Number of Moderate or Severe Migraine Days per Month in Last Month, Response Rate (n/N): 167/348
[1]; evaluable mITT N = 348, 75 mg every other day, 95% CI (−4.95, −3.97)
  Primary Endpoint: Change From OP in Mean Number of Total Migraine Days per Month in Last Month, Least-squares mean: −4.5 Days per Month
[1]; evaluable mITT N = 348, 95% CI (3.29, 4.15)
  Rescue Medication Days per Month in Last Month, Least-squares mean: 3.7 Days per Month
[1]; evaluable mITT N = 348, 95% CI (−3.04, −2.17)
  Change From OP in Mean Number of Total Migraine Days per Month In First Month, Least-squares mean: −2.6 Days per Month
[1]; evaluable mITT N = 348, 95% CI (−3.94, −3.12)
  Change From OP in Mean Number of Total Migraine Days per Month Overall, Least-squares mean: −3.5 Days per Month
[1]; n 269, 95% CI (15.54, 20.56)
  MSQoL Restrictive Role Function Domain Score Change From Baseline at Week 12, Least-squares mean: 18.0
[1]; n 269, 95% CI (−15.41, −8.21)
  MIDAS Total Score Change From Baseline at Week 12, Least-squares mean: −11.8
[1]; participants not taking concomitant preventive treatment
  reduction in mean number of migraine days as compared to placebo, (4.9-3.7)/3.7*100: 32%
[1]; rimegepant 75 mg every other day, vs 3.7 day in placebo group, p=0.0176
  reduction from baseline in monthly migraine days: 4.5 days
[1]; rimegepant group n=273, vs 3.7 day in placebo group (n=269)
  reduction from baseline in monthly migraine days, participants not taking concomitant preventive treatment: 4.9 days
[1]; stratified by prophylactic migraine medication use, 95% CI (42.7, 53.2)
  >=50% Reduction From OP in Mean Number of Moderate or Severe Migraine Days per Month in Last Month, Stratified Risk: 48.0
[1]; vs 41% in the placebo group
  share of group with at least a 50% reduction from baseline in the mean number of moderate to severe migraine days per month: 48%
[2]
  reduction in migraine days per month: ≤ 5.3 days
[3]; [4]
  cases of ALT or AST >3×ULN and bilirubin >2×ULN: no cases
  independent liver monitoring panel assessment of ALT/AST elevations: did not determine any ALT/AST elevations to be in the categories of probably or definitely related to study drug
  safety profile: consistent with prior clinical trial experience
[3]; [5]
  Enterobiasis: 0 n
  Folliculitis: 0 n
  Oral candidiasis: 0 n
  Orchitis: 0 n
  Otitis media: 0 n
[3]; [6]
  Acute sinusitis: 0 n
  Appendicitis: 0 n
  Bacterial vaginosis: 0 n
  Herpes zoster: 0 n
  Pharyngitis streptococcal: 0 n
  Pneumonia: 0 n
  Pyelonephritis: 0 n
  Sepsis: 0 n
[3]; [7]
  Acute sinusitis: 0 n
  Appendicitis: 0 n
  Bacterial vaginosis: 0 n
  Herpes zoster: 0 n
  Pharyngitis streptococcal: 0 n
  Sepsis: 0 n
[3]; [8]
  Acute sinusitis: 0 n
  Appendicitis: 0 n
  Enterobiasis: 0 n
  Folliculitis: 0 n
  Oral candidiasis: 0 n
  Orchitis: 0 n
  Otitis media: 0 n
  Pelvic inflammatory disease: 0 n
  Pertussis: 0 n
  Pharyngitis streptococcal: 0 n
  Pneumonia: 0 n
  Pyelonephritis: 0 n
  Sepsis: 0 n
  Tooth infection: 0 n
